This note sets out measurements from patent publication US6670354B2, “Methods to enhance white blood cell count” (AnorMed, Inc., priority 1999, dated 2003).

The subject of experiment [1] is white blood cell (WBC) count. As to the method:
Eight patients received AMD-3100 at infusion dose rates of 2.5 μg/kg/hr (patients 1-4) and 5.0 μg/kg/hr (patients 5-8).

Experiment [2] concerns white blood cell (WBC) count. The procedure:
Eleven human patients having initial white blood cell counts of 4,000-6,500 cells/mm^3 were used in the study. An intravenous dosing solution of AMD3100 (i.e., 1,1′-[1,4-phenylene-bis(methylene)]-bis-1,4,8,11-tetraazacyclotetradecane) were prepared from a stock solution which is a 1 mg/ml 1:10 dilution of a concentrate in 0.9% saline (normal saline) under sterile conditions. Aliquots from this stock solution were added to 50-ml bags of 0.9% saline for intravenous injection in amounts to achieve the desired dosage levels (10 μg/kg-80 μg/kg).
The subjects described in this example already contained an indwelling peripheral intravenous catheter. The prescribed amount of AMD3100 was administered over 15 minutes by intravenous fusion in a single dose. Blood samples were obtained prior to the dose, and at various times up to 24 hours after dose administration.
Eleven human subjects received intravenous administration of AMD-3100 at doses 10, 20, 40, and 80 μg/kg. Five subjects also received a single subcutaneous injection of AMD-3100 at doses of 40 and 80 μg/kg. Three patients were administered dosages of 10 μg/kg (open circles); 3 patients were administered dosages of 20 μg/kg (solid circles); 3 patients were administered 40 μg/kg (open triangles); and 2 patients were administered 80 μg/kg (closed triangles).
The source holds these as a separate data set.

In the case of `c1cc(CN2CCCNCCNCCCNCC2)ccc1CN1CCCNCCNCCCNCC1` [AMD3100, 1,1′-[1,4-phenylene-bis(methylene)]-bis-1,4,8,11-tetraazacyclotetradecane], the “time for WBC counts to return to baseline after discontinuation of the infusion” value in experiment [1] (continuous infusion 2.5 or 5.0 μg/kg/hr for up to 10 days, HIV-infected patients) was 7 days. Moreover, in experiment [1] (following single dose or with continuous infusion), the “ability to enhance WBC count in human patients” value was “consistently able to enhance WBC count”. For the same compound, in experiment [2] (all 11 patients, 10, 20, 40, 80 μg/kg i.v. over 15 minutes, single dose, over the succeeding 5-10 hours, tapered off after about 24 hours, not returning to original level), the “effect on white blood cell count after administration” value is “marked increase in white blood cell count”. Also, the “white blood cell count, peak value” in experiment [2] (one patient who received 80 μg/kg i.v., from 6,000 cells/mm^3 before dose) is listed as 19,000 cells/mm^3. Further, in experiment [2] (patient showing the least response, 20 μg/kg i.v., from about 6,300 cells/mm^3), the “white blood cell count after increase” value is “about 9,000 cells/mm^3”.
